Measurements as given in PubChem BioAssay AID330 (DTP/NCI, 2004).
Several values for one entry are separate records, joined by “and”; a condition that tells them apart may be missing. Equal values may be shown once. Toxic doses and inconclusive results are not listed. Rule for the calls: active = survival T/C of 150% or more; inactive = T/C below 125% in these data.

System: P388 leukemia ip, CD2F1 mice, survival T/C
Test: NCI In Vivo Anticancer Drug Screen. Data for tumor model P388 Leukemia (intraperitoneal) in CD2F1 (CDF1) mice
Settings: endpoint: median survival time, higher = longer survival
Method in brief: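 Mice carrying the transplanted tumor received test compound or vehicle. Survival was recorded in each group, and the value is the treated-group measurement divided by that of the vehicle-treated control group.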

[1] = dose: 50.0 mg/kg/injection, schedule: Q01DX005 (ip), vehicle: saline with Tween-80
[2] = dose: 100.0 mg/kg/injection, schedule: Q01DX005 (ip), vehicle: saline with Tween-80
[3] = dose: 200.0 mg/kg/injection, schedule: Q01DX005 (ip), vehicle: saline with Tween-80
[4] = dose: 25.0 mg/kg/injection, schedule: Q01DX005 (ip), vehicle: Klucel (hydroxypropylcellulose) (HPC)
[5] = dose: 6.25 mg/kg/injection, schedule: Q01DX005 (ip), vehicle: Klucel (hydroxypropylcellulose) (HPC)
[6] = dose: 12.5 mg/kg/injection, schedule: Q01DX005 (ip), vehicle: Klucel (hydroxypropylcellulose) (HPC)
[7] = dose: 50.0 mg/kg/injection, schedule: Q01DX009 (ip), vehicle: Klucel (hydroxypropylcellulose) (HPC)
[8] = dose: 100.0 mg/kg/injection, schedule: Q01DX009 (ip), vehicle: Klucel (hydroxypropylcellulose) (HPC)
[9] = dose: 200.0 mg/kg/injection, schedule: Q01DX009 (ip), vehicle: Klucel (hydroxypropylcellulose) (HPC)
[10] = dose: 12.5 mg/kg/injection, schedule: Q01DX009 (ip), vehicle: saline with Tween-80
[11] = dose: 25.0 mg/kg/injection, schedule: Q01DX009 (ip), vehicle: saline with Tween-80
[12] = dose: 50.0 mg/kg/injection, schedule: Q01DX009 (ip), vehicle: saline with Tween-80
[13] = dose: 60.0 mg/kg/injection, schedule: Q01DX005 (ip), vehicle: saline with Tween-80
[14] = dose: 120.0 mg/kg/injection, schedule: Q01DX005 (ip), vehicle: saline with Tween-80
[15] = dose: 240.0 mg/kg/injection, schedule: Q01DX005 (ip), vehicle: saline with Tween-80
[16] = dose: 100.0 mg/kg/injection, schedule: Q01DX009 (ip), vehicle: saline with Tween-80
[17] = dose: 200.0 mg/kg/injection, schedule: Q01DX009 (ip), vehicle: saline with Tween-80

Measured: T/C

O=C1CCC(=O)C1
inactive: dose: 60.0 mg/kg/injection, schedule: Q01DX005 (ip), vehicle: saline 100 % of control | dose: 120.0 mg/kg/injection, schedule: Q01DX005 (ip), vehicle: saline 93 % of control | dose: 240.0 mg/kg/injection, schedule: Q01DX005 (ip), vehicle: saline 105 % of control

CC(=O)c1nn(-c2ccccc2)c(=O)cc1C
inactive: [1] 100 % of control | [2] 98 % of control | [3] 100 % of control

C=CCC1OC(COC(=O)c2ccccc2)C(OC(=O)c2ccccc2)C1OC(=O)c1ccccc1 (stereo unspecified)
inactive: [4] 112 % of control | dose: 44.5 mg/kg/injection, schedule: Q01DX005 (ip), vehicle: Klucel (hydroxypropylcellulose) (HPC) 114 % of control | dose: 50.0 mg/kg/injection, schedule: Q01DX005 (ip), vehicle: Klucel (hydroxypropylcellulose) (HPC) 117 % of control | dose: 89.0 mg/kg/injection, schedule: Q01DX005 (ip), vehicle: Klucel (hydroxypropylcellulose) (HPC) 120 % of control | dose: 100.0 mg/kg/injection, schedule: Q01DX005 (ip), vehicle: Klucel (hydroxypropylcellulose) (HPC) 118 % of control

Cc1c(-c2ccc(C3CCCCC3)cc2)nc2ccc(F)cc2c1C(=O)O
inactive: dose: 3.12 mg/kg/injection, schedule: Q01DX005 (ip), vehicle: Klucel (hydroxypropylcellulose) (HPC) 104 % of control | [5] 99 % of control | [6] 110 % of control | [4] 99 % of control

Cc1nc2ccccc2c(=O)n1N1C2CCCC21 (stereo unspecified)
inactive: dose: 50.0 mg/kg/injection, schedule: Q04DX002 (ip), vehicle: Klucel (hydroxypropylcellulose) (HPC) 103 % of control | dose: 100.0 mg/kg/injection, schedule: Q04DX002 (ip), vehicle: Klucel (hydroxypropylcellulose) (HPC) 98 % of control | dose: 200.0 mg/kg/injection, schedule: Q04DX002 (ip), vehicle: Klucel (hydroxypropylcellulose) (HPC) 100 % of control

O=C(N/N=C/c1cccnc1)C(=O)Nc1cccc(C(F)(F)F)c1
inactive: [5] 95 % of control | [6] 89 % of control | [4] 87 % of control

CCC1(C2OC(C3OC(O)(CO)C(C)CC3C)CC2C)CCC(C2(C)CCC3(CC(O)C(C)C(C(C)C(OC)C(C)C(=O)O)O3)O2)O1 (stereo unspecified)
inactive: dose: 3.13 mg/kg/injection, schedule: Q01DX005 (ip), vehicle: saline with Tween-80 110 % of control and 112 % of control | dose: 6.25 mg/kg/injection, schedule: Q01DX005 (ip), vehicle: saline with Tween-80 108 % of control and 111 % of control and 118 % of control | dose: 12.5 mg/kg/injection, schedule: Q01DX005 (ip), vehicle: saline with Tween-80 120 % of control

O=C(c1cccs1)c1ccc(Cl)cc1Cl
inactive: [7] 107 % of control | [8] 103 % of control | [9] 104 % of control

CCSC1(SCC)C(=O)OC2=C(CCCCC2)C1N(C)c1ccccc1 (stereo unspecified)
inactive: [10] 93 % of control | [11] 99 % of control | [12] 99 % of control

C/C(=N\N=C(\N)N1CCOCC1)c1ccc2c(c1)Cc1c(/C(C)=N/N=C(\N)N3CCOCC3)cccc1-2
inactive: dose: 12.5 mg/kg/injection, schedule: Q04DX002 (ip), vehicle: saline with Tween-80 102 % of control | dose: 25.0 mg/kg/injection, schedule: Q04DX002 (ip), vehicle: saline with Tween-80 97 % of control | dose: 50.0 mg/kg/injection, schedule: Q04DX002 (ip), vehicle: saline with Tween-80 103 % of control

O=C(Nc1ccc(Cl)cc1)Nc1nnc(/C=C/c2ccc(Cl)c(Cl)c2)o1
inactive: [13] 95 % of control | [14] 91 % of control | [15] 101 % of control

CC(C)(CC#N)c1cc(CC(C)(C)C2(C)OCCO2)no1
inactive: [1] 104 % of control | [2] 98 % of control | [3] 92 % of control

COc1ccc(N=Cc2ccc(C=Nc3ccc(OC)cc3OC)cc2)c(OC)c1
inactive: dose: 50.0 mg/kg/injection, schedule: Q01DX009 (ip), vehicle: saline 93 % of control | dose: 100.0 mg/kg/injection, schedule: Q01DX009 (ip), vehicle: saline 96 % of control | dose: 200.0 mg/kg/injection, schedule: Q01DX009 (ip), vehicle: saline 91 % of control

O=[N+]([O-])c1ccc(Nc2ccc(Cl)cc2)c2nonc12
inactive: [1] 100 % of control | [2] 103 % of control | [3] 97 % of control

CN(C)C(=O)c1cccc(COc2ccc([N+](=O)[O-])cc2Cl)c1
inactive: [12] 110 % of control | [16] 110 % of control

O=C(NC(C(=O)O)C1CC(Cl)=NO1)OCC1c2ccccc2-c2ccccc21 (stereo unspecified)
active: dose: 100.0 mg/kg/injection, schedule: Q04DX003 (ip), vehicle: other 157 % of control | dose: 200.0 mg/kg/injection, schedule: Q04DX003 (ip), vehicle: other 150 % of control
inactive: dose: 3.1 mg/kg/injection, schedule: Q04DX003 (ip), vehicle: other 104 % of control | dose: 6.2 mg/kg/injection, schedule: Q04DX003 (ip), vehicle: other 116 % of control | dose: 12.5 mg/kg/injection, schedule: Q04DX003 (ip), vehicle: other 120 % of control | dose: 25.0 mg/kg/injection, schedule: Q04DX003 (ip), vehicle: other 120 % of control and 123 % of control

CC1=Nc2cc3ccccc3cc2N(C)/C1=C/C1=C(Cl)C(=O)c2ccccc2C1=O
inactive: [10] 96 % of control | [11] 100 % of control | [12] 92 % of control and 97 % of control | [16] 106 % of control | [17] 89 % of control

C[SiH]12(OC(C(F)(F)F)(C(F)(F)F)c3ccccc31)OC(C(F)(F)F)(C(F)(F)F)c1ccccc12
inactive: dose: 25.0 mg/kg/injection, schedule: Q01DX005 (ip), vehicle: saline with Tween-80 100 % of control | [1] 102 % of control

CC(=O)N(OC1OC(CO)C(O)C(O)C1O)c1ccc(Oc2ccc(Cl)cc2)cc1 (stereo unspecified)
inactive: dose: 60.0 mg/kg/injection, schedule: Q01DX005 (ip), vehicle: Klucel (hydroxypropylcellulose) (HPC) 104 % of control | dose: 120.0 mg/kg/injection, schedule: Q01DX005 (ip), vehicle: Klucel (hydroxypropylcellulose) (HPC) 92 % of control

CCCCCC1SCC(=O)N1c1nncs1 (stereo unspecified)
inactive: [13] 106 % of control | [14] 103 % of control | [15] 113 % of control

COc1ccc(CCN/C=C2\Cc3c(Cl)cccc3C2=O)cc1OC
inactive: dose: 100.0 mg/kg/injection, schedule: Q04DX003 (ip), vehicle: Klucel (hydroxypropylcellulose) (HPC) 100 % of control | dose: 200.0 mg/kg/injection, schedule: Q04DX003 (ip), vehicle: Klucel (hydroxypropylcellulose) (HPC) 93 % of control | dose: 400.0 mg/kg/injection, schedule: Q04DX003 (ip), vehicle: Klucel (hydroxypropylcellulose) (HPC) 99 % of control

CN(C)C1CS(=O)(=O)C1c1ccccc1 (stereo unspecified)
inactive: [10] 100 % of control and 110 % of control | [11] 110 % of control and 95 % of control | [12] 112 % of control and 95 % of control | [16] 102 % of control and 103 % of control and 97 % of control | [17] 102 % of control

CSC1=Nc2cc3c(cc2C(=O)N2C[C@H](O)CC12)OCO3 (stereo partly specified)
inactive: [1] 108 % of control | [2] 102 % of control | [3] 94 % of control

COc1cccc2c1C(=O)c1c(O)c3c(c(O)c1C2=O)CC(O)(C1(C)OCC(C)(C)CO1)CC3OC1CC(N)C(O)C(C)O1 (stereo unspecified)
inactive: dose: 3.13 mg/kg/injection, schedule: Q04DX003 (ip), vehicle: water 104 % of control | dose: 6.25 mg/kg/injection, schedule: Q04DX003 (ip), vehicle: water 106 % of control | dose: 12.5 mg/kg/injection, schedule: Q04DX003 (ip), vehicle: water 111 % of control | dose: 25.0 mg/kg/injection, schedule: Q04DX003 (ip), vehicle: water 104 % of control | dose: 50.0 mg/kg/injection, schedule: Q04DX003 (ip), vehicle: water 95 % of control

CCOC(CCC1(C)C(=O)CCC1=O)(OCC)OCC
inactive: [13] 106 % of control | [14] 106 % of control | [15] 99 % of control

COc1cccc(-c2nc(SCC(N)=O)[nH]c(=O)c2C#N)c1
inactive: [1] 112 % of control | [2] 98 % of control | [3] 98 % of control

CC(C)(C)NCC(O)CSc1nc(-c2ccc(C(N)=O)s2)cs1 (stereo unspecified)
inactive: [12] 100 % of control | [16] 109 % of control | [17] 109 % of control

CCOC(=O)C1(CN2C(=O)c3ccccc3C2=O)C(=O)Nc2ccccc21 (stereo unspecified)
inactive: [7] 87 % of control | [8] 87 % of control | [9] 87 % of control

C=CCCC1CC2CCCCN2O1 (stereo unspecified)
inactive: dose: 61.25 mg/kg/injection, schedule: Q01DX009 (ip), vehicle: saline 115 % of control | dose: 122.5 mg/kg/injection, schedule: Q01DX009 (ip), vehicle: saline 103 % of control | dose: 245.0 mg/kg/injection, schedule: Q01DX009 (ip), vehicle: saline 100 % of control
